Results reported in a melting point compilation (Tetko et al.; mined from patent text by program, amines drawn as free bases though some values may be those of a salt).

Row | SMILES | melting point
1 | CCCCCC(CC(=O)Nc1cc(C(N)=O)ccc1C(C)(C)C)c1cc(OC)c(OC)cc1OC (stereo not drawn) | 166 to 167 °C
2 | Cc1c(-c2ccccc2)oc(=O)n1C1CCN(CCc2ccccc2)CC1 | 144 °C
3 | O=C(O)c1cc(SCCO)ccc1O | 136 °C
4 | O[C@@H]1CCCC[C@H]1Nc1ccccc1 (relative stereo) | 57 to 58 °C
5 | CCCCc1nc2c(N)nc3ccc(O)cc3c2n1CCCCNC(=O)c1ccccc1 | 188 to 190 °C
6 | COC(=O)C1CCCc2c(noc2-c2ccc(Cl)cc2)C1 (stereo not drawn) | 94 to 95 °C
7 | O=C(Nc1cc(-c2nc(-c3ccco3)no2)ccc1Cl)OCC(Cl)(Cl)Cl | 114 to 116 °C
8 | COc1ccc(C2OC(O[Si](C)(C)C)(C(F)(F)F)C(C)(C)N2C(=O)COc2ccccc2)cc1 (stereo not drawn) | 89 to 92 °C
9 | COC(=O)C(O)(c1ccc(C)cc1)c1ccc(C)cc1 | 83 to 84 °C
10 | COc1ccc(-n2ccc(=O)c(-c3ccnn3-c3ccccc3)n2)cc1 | 179 to 180 °C
11 | O=C(NCc1ccc(F)cc1)c1ccnc(N2CCN(Cc3ccc(F)c(F)c3)C2=O)c1 | 165 to 167 °C
12 | COC(=O)c1cc(S(C)(=O)=O)c(Nc2ccc(S(F)(F)(F)(F)F)cc2)cc1C | 106 to 109 °C
13 | CN1CC(CO)C=C2c3cccc4[nH]c(Cl)c(c34)CC21 (stereo not drawn) | 207 °C
14 | Cc1cc(C)cc(Sc2c(C(C)C)nc(C=NO)n2C)c1 | 240 to 241 °C
15 | Nc1nc2c(ncn2[C@H]2C=C[C@@H](O)CC2)c(=O)[nH]1 (racemic) | > 300 °C
16 | O=c1c2cc(O)ccc2nc(C(S)c2ncnc3[nH]cnc23)n1-c1ccccc1Cl (stereo not drawn) | 186 to 214 °C
17 | CON=C(C)CCN1C(=O)c2ccccc2C1=O | 55 to 64 °C
18 | CC(=O)c1cnc2c(cnn2Cc2ccco2)c1O | 108 to 110 °C
19 | O=C(O)CCSC1c2ccccc2COc2ccc(OCc3ccc4cc(F)ccc4n3)cc21 (stereo not drawn) | 167 to 171 °C
20 | CS(=O)(=O)c1ccc(-c2cc(=O)n(C3CCCCC3)nc2-c2ccc(F)cc2)cc1 | 86 to 90 °C
21 | O=C(O)CCC(=NOCc1ccc(OCc2cc(-c3ccccc3)on2)cc1)c1ccccc1 | 100 to 101 °C
22 | N#Cc1ncn2c1[C@@H]1CCCN1C(=O)c1ccccc1-2 | 223 to 225 °C
23 | O=C(Cn1cnc2ccccc21)c1ccc(Cl)cc1Cl | 130 to 132 °C

Row | SMILES | melting point
24 | COC(=O)c1cc(C(=O)N(C)CC(=O)N(C)C)c2cc(Cc3ccc(F)cc3)cnc2c1O | 99 to 100 °C
25 | O=C(CNC(=O)c1ccc(C2=NOC(c3cc(Cl)cc(C(F)(F)F)c3)(C(F)(F)F)C2)c2ccccc12)NCC(F)(F)F (stereo not drawn) | 107 to 108 °C
26 | CNC(=O)N1CCc2nc(N)sc2C1 | 202 °C
27 | Cc1cc(C)c(C2C(=O)CC(c3ccccc3)CC2=O)c(C)c1 (stereo not drawn) | 215 to 216 °C
28 | OCCc1nccn1CCCCc1ccc(OCc2coc(/C=C/c3ccc(Br)cc3)n2)cc1 | 149 to 150 °C
29 | CCc1nc2c(cnn2CC)c(NC2CCOCC2)c1CNC(=O)c1cccc(C(=O)NCc2ccc(C)c(-c3cccc(CN4CCNCC4)c3)c2)c1 | 135 to 138 °C
30 | CC(C)=CCN1CCc2c(sc(N)c2C(=O)c2ccc(I)cc2)C1 | 148 to 150 °C
31 | O=C(Nc1ccc(O)cc1)c1cc(O)cc(O)c1 | 266 °C
32 | NCCCOc1ccc(OCCCN)cc1 | 73 to 74 °C
33 | CCCCCCCCCCCCCC(=O)Oc1ccc([N+](=O)[O-])cc1OC(=O)CCCCCCCCCCCCC | 58 to 60 °C
34 | O=C(O)CC(Sc1ccc(Cl)cc1)c1ccccc1 (stereo not drawn) | 90 to 92 °C
35 | CC(C)C(=O)NC1CCc2c(c3cc(-c4nnc(N)s4)ccc3n2Cc2cccc(F)c2)C1 (stereo not drawn) | 251 to 254 °C
36 | COCc1c(C(=O)OC)c2cc(O)ccc2n1C | 168 to 170 °C
37 | CC(C)Cc1[nH]c(=O)[nH]c1-c1cc(C(C)(C)C)c(O)c(C(C)(C)C)c1 | 286 to 289 °C
38 | COc1ccc(CSCC(C)C(=O)O)cc1 (stereo not drawn) | 74 to 82 °C
39 | O=C(O)CN(C(=O)CN1C(=O)c2ccccc2C1=O)c1ccccc1 | 224 °C
40 | CCCC(=O)c1c[nH]c2c(OC)nccc2c1=O | 206 to 207 °C
41 | CCN1C(=O)CN=C(c2ccccc2F)c2cc(C(C)=O)ccc21 | 154 to 156 °C
42 | N#Cc1nn(-c2c(Cl)cc(C(F)(F)F)cc2Cl)cc1-c1occc1Br | 99 to 101 °C
43 | O=C1OC(=O)c2c(-c3ccccc3)c3ccccc3c3cccc1c23 | 158 to 161 °C
44 | CCCCCCCCN1CC(C(=O)OC)N(S(=O)(=O)c2ccc(NC(=O)c3ccc(Cl)cc3)cc2)CC1=O (stereo not drawn) | 171 to 173 °C
45 | COCCN1CCc2ccc(OC)c(Nc3ncc(Cl)c(N[C@@H]4CCCC[C@H]4NS(C)(=O)=O)n3)c2CC1 | 93 to 100 °C
46 | CC(C)(C)C(=N)Nc1ccccc1N1CCOCC1 | 126 °C

Second part, the compound after the results:

Row | melting point | SMILES
47 | 89 °C | O=C(CCCN1CCN(c2ccccn2)CC1)c1cccnc1
48 | 135 to 137 °C | C=CCN(C)C/C=C/COc1cc2c(cc1F)c(-c1ccc(Br)cc1)nn2C
49 | 175 °C | O=C(Nc1ccccc1)C1=C(O)c2cccc(-c3ccccc3)c2OS1
50 | 99 to 100 °C | COc1cc(NC(=O)CCCCCN2CCN(c3ccc(Cl)c(Cl)c3)CC2)c2nccc(C)c2c1
51 | 179 to 181 °C | N#CN1CCN(c2nn(S(=O)(=O)c3ccccc3)c3cc(Cl)ccc23)CC1
52 | 138 to 140 °C | COC(=O)C[C@H](C(=O)OC)N1C(=O)[C@@H](N2C(=O)c3ccccc3C2=O)[C@H]1C=Cc1ccccc1
53 | 76 to 78 °C | Cc1cc(SC(C)C)c(NC(=O)CCCCCCSc2nc3cccc(C(F)(F)F)c3o2)c(SC(C)C)n1
54 | 112 to 114 °C | COC(=O)COc1ccc(SCc2cc(-c3ccc(Cl)cc3)on2)c2c1CCC2
55 | 107 to 108 °C | CCN(CC)C(=O)c1c(CO)ccc(F)c1[Si](C)(C)C
56 | 160 to 162 °C | COc1cc(OC)c(-c2cccs2)cc1/C=C/C(=O)c1ccc(S(=O)(=O)NCCCn2ccnc2)cc1
57 | 187 to 188 °C | O=C(/C=C/c1ccc(F)cc1)c1cnc2sc3c(n12)CCCCC3
58 | 157 °C | COc1ccc(CN(C)CCCCc2ccc(NC(=O)c3cccc4c(=O)c5cccc(OC)c5[nH]c34)cc2)cc1OC
59 | 182 °C | CC(C)CCC(=O)N[C@H]1CC[C@H](CCN2CCN(c3nccc4c3CCO4)CC2)CC1
60 | 315 to 316 °C | Cc1nc(-c2ccc(-c3cnc4[nH]c(=O)n(CCN5CCCC5=O)c4n3)cc2)n[nH]1
61 | 90 °C | Cc1cc(Cl)ccc1-n1cnnc1C(F)(F)F
62 | 178 to 180 °C | CC(CSC#N)n1nnc2cc3c(=O)n(C4CC4)nnc3cc2c1=O (stereo not drawn)
63 | 96 °C | Cc1ccc(S(=O)(=O)N2CCCC2c2ccc(F)c(Cl)c2)cc1 (racemic)
64 | 126 °C | O=C1OCc2cc(CO)ccc21
65 | 217 to 220 °C | Cc1ccc(NC(=O)c2c(C)cccc2N)cc1
66 | 219 to 221 °C | CSc1ccc(-c2nc(SC)c(C#N)c(=O)n2-c2ccc(F)cc2)cc1
67 | 110 °C | CCC1(CCC(=O)OC)CCCN2CCc3c([nH]c4ccccc34)C21 (stereo not drawn)
68 | 180 °C | COc1cc(C=O)cc(C#N)c1O
69 | 108 to 120 °C | COC1(OC)CCCCC1N=O (stereo not drawn)
70 | 194 °C | Brc1ccc(-c2cnc(-c3ccccc3)nc2)cc1
71 | 149 to 151 °C | CCCCC1(CCCC)CCc2c(OCc3ccc4ccccc4n3)ccc(C)c2C1O (stereo not drawn)
72 | 127 °C | CC(O)[C@@H](Cc1ccccc1)NC(=O)OC(C)(C)C (stereo partly drawn)

Row | melting point | SMILES
73 | 141 °C | COCCOc1cc(Oc2ccccc2)cnc1Nc1nccs1
74 | 122 to 123 °C | O=S(=O)(Nc1ccc(C(F)(F)F)cc1Cl)c1cc(C(F)(F)F)ccc1Cl
75 | 188 to 192 °C | COC(=O)C1=C(C)NC(C)=C(C(=O)OCCN)C1c1cccc2c(=O)c(C)c(-c3ccccc3)oc12 (stereo not drawn)
76 | 231 °C | CC(=O)OCC(=O)C12OCOC1CC1C3CCC4=CC(=O)CCC4(C)C3(Cl)C(O)CC12C (stereo not drawn)
77 | 188 to 189 °C | CCCCNc1c(C(=O)OCC)c(C)nc2[nH]nnc12
78 | 108 to 111 °C | COc1ccc(C(=O)Cc2cc(OC)ccc2OC)cc1
79 | 121 to 123 °C | N=C(Nc1cc(Cl)cc(NC(=O)/C=C/c2ccccc2C(F)(F)F)c1)c1ccsc1
80 | 122 to 123 °C | COc1cc(C=O)ccc1OCc1csc(N2CCOCC2)n1
81 | 285 to 290 °C | CCOc1cc2ncc(C#N)c(Nc3ccc(Sc4nccn4C)c(Cl)c3)c2cc1OCC
82 | 206 to 207 °C | Cc1ccc(-c2nc(N3CCOCC3)c3c(C)c(C#N)sc3n2)cc1
83 | 140 to 142 °C | Cc1ccc2cccc(OCc3c(Cl)ccc(S(=O)(=O)NCc4ccccc4)c3Cl)c2n1
84 | 220 to 222 °C | Nc1cccc(Cl)c1-c1nc(-c2ccncc2)c(-c2ccc(Cl)cc2)[nH]1
85 | 220 to 222 °C | N#Cc1ccc2c(c1)S(=O)c1ccccc1C=C2 (stereo not drawn)
86 | 115 to 116 °C | CS(=O)(=O)On1nnc2ccc([N+](=O)[O-])cc21
87 | 67 to 68 °C | CCOC(=O)Cc1cccc(OCc2ccc3oc([N+](=O)[O-])c(-c4ccccc4)c3c2)c1
88 | 240 to 241 °C | CC(=O)Nc1cc2c(cc1[N+](=O)[O-])OC(C)(C)[C@@H](O)[C@@H]2N1CCCC1=O (relative stereo)
89 | 175 to 177 °C | CCN(CC)CCOc1ccc(Nc2ncc3c(n2)N(C2CCCC2)C(=O)NC3)cc1C
90 | 167 to 169 °C | Nc1ccc(C(CC2CCCC2)C(=O)O)cc1 (stereo not drawn)
91 | 243 to 245 °C | CCCCc1nc(=O)c2cc(C#N)ccc2[nH]1
92 | 165 °C | COc1ccc(-c2c(C)c3cccc4c3n2CC(CCN2CCN(c3cc(C)ccn3)CC2)O4)cc1 (stereo not drawn)
93 | 192 °C | COc1ccc(C(=O)Nc2cccnc2Cl)c2c1oc1ccccc12
94 | 107 to 108 °C | CCCCS(=O)(=O)c1cn(C)c2ccccc2c1=O
95 | 240 to 241 °C | CN1C2=C(CSC2)C(=O)Nc2cccnc21
96 | 272 to 275 °C | NC(=O)C1CCN(c2cc(-c3ccc(Cl)cc3)nc3ccc(Cl)cc23)CC1
97 | 140 to 143 °C | COC(=O)C(Cc1cc(C(C)(C)C)c(O)c(C)c1C)C(=O)OC
98 | 118 to 120 °C | COc1ccc(-c2cnc(SC(F)(F)C(F)F)nc2-c2ccc(OC)cc2)cc1
